Converted amounts (≈) assume the structure as drawn. Like-named read-outs stand apart in the source and are kept apart here.
Tests used:
Assay type in all cases: cell-based
A. viscosus biofilm [1] = assay: Biofilm Eradication Concentration (BEC50), crystal violet biomass, compositions serially diluted (Example 3); settings: FIG. 2; for BEC(50) alone: active tested alone, lowest concentration with >50% reduction in biomass vs media control; for BEC50 in combination: bisabolol (0.7%) and Triclosan (0.05%) composition serially diluted, concentration of the named active in the combination
Procedure: A composition comprising bisabolol, a composition comprising the antibacterial agent Triclosan and a composition comprising both bisabolol and Triclosan were tested for antibiofilm activity.
A composition comprising bisabolol (0.7%), a composition comprising Triclosan (0.05%) and a composition comprising bisabolol (0.7%) and Triclosan (0.05%) were each serially diluted in a 96-well plate. A. viscosus cultures were added to each well and plates were incubated at 37° C. to allow biofilm formation to occur. Following biofilm formation, supernatants were removed and wells were stained with 0.6% crystal violet for 15 min. Biofilm biomass was quantified by reading the absorbance of each well at 590 nm and the percentage reduction in biomass relative to a control of media alone was calculated.
BEC50 is defined as the minimum concentration at which a greater than 50% reduction of biofilm formation is observed.

A. viscosus = assay: Minimum inhibitory concentration, serial dilution in 96-well plate, 24 h; settings: Actinomyces viscosus, read-out: MIC (A. viscosus)
Procedure: The minimum inhibitory concentration for actives was determined by incubating Actinomyces viscosus bacteria with serial dilutions of the active for 24 hours and determining the lowest concentration at which growth of this species was inhibited. Briefly, 100 μl final volume actives were serially diluted in 0.5× tryptic soy broth (TSB) across duplicate wells of a 96-well flat bottom microtiter plate. An overnight culture of bacteria was diluted to an OD610 ˜0.2 and 100 μl of this was added to each well. Plates were incubated overnight at 37° C. OD610 was read for each well and the MIC was determined as the concentration of active in the last well where bacterial growth was inhibited.

A. viscosus biofilm [2] = assay: Inhibition of single-species biofilm formation by serial dilutions of bisabolol (Example 2); settings: bisabolol alone, 24 hours, FIG. 1
Procedure: The effect of different concentrations of bisabolol on the inhibition of A. viscosus biofilm formation was tested. A. viscosus bacteria were grown for 24 hours in the presence of serial dilutions of bisabolol or an equivalent concentration of EtOH. Wells were stained to visualize biofilm formation. The results are shown in FIG. 1 where the x-axis represents the concentration of bisabolol (or an equivalent solution of EtOH in media) and the y-axis represents the percent reduction in biofilm relative to control wells grown in media alone.

A. viscosus biofilm [3] = assay: Bioenhancement assay: BEC50 of antimicrobial agents with or without bisabolol, crystal violet, 24 h (Examples 4 and 5)
[4] = test system: five-species biofilm: A. viscosus, Lactobacillus casei, Streptococcus oralis, Fusobacterium nucleatum and Veillonella parvula; assay: Multispecies biofilm formation on saliva coated hydroxyapatite disks, 48 h, OD610 (Example 6); settings: 20 ppm of Triclosan alone, FIG. 5
Procedure: The ability of compositions comprising Triclosan and bisabolol either alone or in combination to inhibit biofilm formation were tested in a multispecies model where the biofilms comprised five representative oral bacterial species: A. viscosus, Lactobacillus casei, Streptococcus oralis, Fusobacterium nucleatum and Veillonella parvula. Saliva coated hydroxyapatite (HAP) disks were inoculated with this five-species mix of bacteria in the presence Triclosan alone, bisabolol alone or with a 2:1 concentration of bisabolol:Triclosan. Disks were incubated for 48 h to allow biofilm formation to occur. Biofilm containing disks are were incubated in 1 ml of 0.25% trypsin solution for 45 min at 37° C. to release the biofilm and biomass was read as the OD610 of the trypsin solution.
In order to determine any antibiofilm effect beyond that of Triclosan, it was necessary to reduce the concentration of Triclosan below the inhibitory concentration. […]

[5] = Table 2, absence of bisabolol, FIG. 4a
[6] = Table 2, presence of 50 ppm bisabolol, FIG. 4a
[7] = first Table 3, said to be raw data of FIG. 4b, absence of bisabolol
[8] = first Table 3, said to be raw data of FIG. 4b, presence of 50 ppm bisabolol

Compound | BEC(50) alone (A. viscosus biofilm [1]) | BEC50 in combination (A. viscosus biofilm [1]) [ppm] | MIC (A. viscosus; lowest concentration inhibiting growth, overnight at 37° C., 0.5× TSB) [µg/mL] | lowest concentration inhibiting formation of single-species biofilms (A. viscosus biofilm [2]) [ppm] | BEC(50) alone (A. viscosus biofilm [3]; [5]) | BEC(50) w/bisabolol (A. viscosus biofilm [3]; [6]) | BEC(50) alone (A. viscosus biofilm [3]; [7]) | BEC(50) w/bisabolol (A. viscosus biofilm [3]; [8]) | BEC50 of Triclosan alone (A. viscosus biofilm [3]; Example 4, no bisabolol, FIG. 3) [ppm] | BEC50 of Triclosan in the composition comprising bisabolol (A. viscosus biofilm [3]; Example 4, with 5 ppm bisabolol, FIG. 3) [ppm] | MIC (A. viscosus) [µg/mL] | reduction in biofilm formation [4] [%]
CC(C)=CCC[C@](C)(O)C1CC=C(C)CC1 (some centres unmarked) [Bisabolol] | 110 ppm | 27.3 | 125 (≈ 562 µM) | 110 | – | – | – | – | – | – | – | –
CCCCCCCCCCCCCCCC[n+]1ccccc1 [CPC, cetyl pyridinium chloride] | – | – | – | – | 0.6836 | 0.4883 | 0.1196 | 1.7999E−07 | – | – | – | –
Oc1cc(Cl)ccc1Oc1ccc(Cl)cc1Cl [Triclosan] | approximately 3.9 ppm | 1.95 | – | – | 1.465 | 0.4883 | 0.2819 | 0 | 4.13 | 1.78 | 3.5 (≈ 12.1 µM) | > 60
CCCCc1ccc(O)c(-c2cc(CCCC)ccc2O)c1 [butyl magnolol] | – | – | – | – | 0.5859 | 0.5859 | 0.09766 | 0.09766 | – | – | – | –
C=CCc1ccc(O)c(-c2ccc(O)c(CC=C)c2)c1 [honokiol] | – | – | – | – | 13.38 | 5.176 | 5.41 | 2.69 | – | – | – | –
C=CCc1ccc(O)c(-c2cc(CC=C)ccc2O)c1 [magnolol] | – | – | – | – | 3.906 | 0.8789 | 1.07 | 0.2847 | – | – | – | –
CCCc1ccc(O)c(-c2ccc(O)c(CCC)c2)c1 [propyl honokiol] | – | – | – | – | 2.344 | 1.367 | 0.3906 | 0.2392 | – | – | – | –
[Cl][Sn][Cl] [stannous chloride] | – | – | – | – | 234.375 | 161.1 | 45.11 | 59.87 | – | – | – | –
[F][Sn][F] [stannous flouride, stannous fluoride] | – | – | – | – | 312.5 | 86.06 | 0 | 75.56 | – | – | – | –
O=C([O-])CC(O)(CC(=O)[O-])C(=O)[O-].O=C([O-])CC(O)(CC(=O)[O-])C(=O)[O-].[Zn+2].[Zn+2].[Zn+2] [zinc citrate] | – | – | – | – | 208.3 | 19.53 | 52.08 | 9.766 | – | – | – | –
catechin | – | – | – | – | 812.5 | 618.75 | 187.5 | 233.5 | – | – | – | –

From US8906349B2, “Oral care composition” (priority 2009, dated 2014)
